{
  "source": "patent US20020111272A1",
  "about": "“Glyphosate-induced male sterility in dicots” (priority 2000, published 2002)",
  "key": {"[1]": {"system": "glyphosate-tolerant variety (RR1445) of Coker 312", "assay": "Glyphosate-induced male sterility in cotton, field plots scored for fertility (Example 1)", "assay_type": "in vivo", "source_text": "A test was designed to determine whether glyphosate-induced male sterility in cotton could be reliably maintained throughout the blooming period.\nThe plant material used was a glyphosate-tolerant variety (RR1445) of Coker 312 obtained from Monsanto Co. (St. Louis, Mo.). Seed was planted in 25 foot long, single row plots, with a 38 inch row spacing. The test was replicated four times with treatments applied as follows:\nTreatment 1: Single spray at 30 days post planting (“30 DPP”);\nTreatment 2: Multiple sprays beginning at 30 DPP and repeating every 10 days (“30 DPP+10 D”)\nTreatment 3: Multiple sprays beginning at 30 DPP and repeating every 20 days (“30 DPP+20 D”)\nTreatment 4: Unsprayed control.\nThe sprays consisted of a single 2% solution of Roundup® brand glyphosate (41% formulation), which was equivalent to 20 ml/l, or 22/3 oz/gal. This solution was used in all spray treatments, and was applied to runoff. […] At the onset of bloom (mid-July) and through mid September, each plot was scored for fertility approximately every 5 days as follows:\n0=Complete sterility; no pollen present upon rubbing anthers between fingers;\n1=Practically no pollen present upon rubbing anthers, no self pollination possible because anthers never shed pollen, male-sterile for all practical purposes;\n2=Very little pollen upon rubbing anthers, no natural pollen shed, no self pollination possible, male sterile for all practical purposes;\n3=Some pollen present when anthers rubbed, a minimal amount of natural pollen shed on lower anthers, a very small amount of self pollination possible with insect activity;\n4=Anthers shed pollen in sufficient amounts at all anther levels to self pollinate;\n5=Anthers shed pollen in normal amounts from all anthers."}, "Paymaster 145 RR": {"system": "Paymaster 145 RR", "assay": "Crossing block with hand pollination, boll and seed set (Example 2)", "assay_type": "in vivo, cotton", "settings": "glyphosate applied as in Example 1 (about 64 oz/acre); end of season", "source_text": "A small isolated crossing block was planted with variety Paymaster 145 RR. Glyphosate was applied as indicated in the previous Example. The intention was to maintain male sterility and to cross pollinate (manually) with pollen from another Paymaster variety to produce actual F1 hybrid seed."}, "[2]": {"system": "PM 2200 RR and PM 2326 RR", "assay": "Spray rate test, fertility scores and seed set after hand pollination (Example 3)", "assay_type": "in vivo, cotton", "procedure": "A further test was conducted using the varieties PM 2200 RR and PM 2326 RR, in which 4 levels of glyphosate spray rates were applied at 14 day intervals, beginning at 31 days post planting. The rates used were: 0, 16, 24 and 32 ounces/acre of glyphosate. Fertility scores were taken at roughly 2 day intervals during the season to follow male sterility development. At the same time hand pollination was done on 10 flowers in each treatment (all 3 replicates), also at 2 day intervals for a total of “10 crossing days”. This was to determine the amount of seed set under the various spray regimes and thus infer the degree of female sterility, if any, being induced by the glyphosate applications."}, "DP 5414 RR": {"system": "DP 5414 RR", "assay": "Effect of glyphosate on soybean yield, male sterility assessed from yield (Example 4)", "assay_type": "in vivo", "source_text": "(§1) The glyphosate-tolerant soybean varieties DP 7220 RR, DP 6299 RR and DP 5414 RR were planted in replicated four row plots 18 feet in length, at planting and during growing season, end trimmed to 14.5 feet just prior to harvest to remove end effects in yield. Glyphosate (RoundUp® Ultra Max, Monsanto Co.) was applied starting 14 days post planting, with 5 applications at approximately 10 day intervals thereafter. The sprays consisted of a single 2% solution of the RoundUp® Ultra Max commercial glyphosate product, which is a 50% solution of glyphosate. This is equivalent to 16.25 ml/l or 2.17 oz/gal. This solution was used for all treatments, and was applied to runoff. Four rates of application were used: 0 ounces/acre (oz/acre) (control), 13.5 oz/acre (equivalent to the 16 oz/acre of the 41% formulation used in Examples 1-3), 26 oz/acre (equivalent to the 32 oz/acre used for Examples 1-3) and 52 oz/acre (equivalent to the 64 oz/acre used for Examples 1-3).\n(§2) The two middle rows of each plot were harvested for yield, calculated in bushels/acre (bu/acre) based on this land area. Statistical significance was determined using a standard single-tailed T-test. Male sterility was assessed based on the yield, because soybean is a […] flower (the flowers never open until after fertilization), and thus is almost completely self-pollinated. A statistically significant reduction in the yield would therefore correlate with a decreased rate of fertilization. Pollen production was not assessed in this experiment, but based on the observations made in cotton (Examples 1-3), it is reasonable to conclude that the decrease in fertilization rate in soybeans was due to a decrease in viable pollen production."}, "DP 7220 RR": {"system": "DP 7220 RR", "assay": "Effect of glyphosate on soybean yield, male sterility assessed from yield (Example 4)", "assay_type": "in vivo", "source_text": "as §1, §2"}, "DP 6299 RR": {"system": "DP 6299 RR", "assay": "Effect of glyphosate on soybean yield, male sterility assessed from yield (Example 4)", "assay_type": "in vivo", "source_text": "as §1, §2"}},
  "data": [
    {"smiles": "O=C(O)CNCP(=O)(O)O", "note": "[glyphosate]", "values": [
      {"measurement": "Fertility score", "setting": "[1]; 30 DPP (single spray at 30 days post planting), 2% Roundup about 64 oz/acre, 58 days post planting, score 0 complete sterility to 5 normal pollen, practical sterility 2.75 or below", "value": 1.00},
      {"measurement": "Fertility score", "setting": "[1]; 30 DPP + 10 D (sprays from 30 DPP every 10 days), 2% Roundup about 64 oz/acre, 58 days post planting", "value": 1.00},
      {"measurement": "Fertility score", "setting": "[1]; 30 DPP + 10 D, 62 days post planting", "value": 1.00},
      {"measurement": "Fertility score", "setting": "[1]; 30 DPP + 10 D, 66 days post planting", "value": 1.00},
      {"measurement": "Fertility score", "setting": "[1]; 30 DPP + 10 D, 70 days post planting", "value": 1.00},
      {"measurement": "Fertility score", "setting": "[1]; 30 DPP + 10 D, 75 days post planting", "value": 1.00},
      {"measurement": "Fertility score", "setting": "[1]; 30 DPP + 10 D, 80 days post planting", "value": 1.25},
      {"measurement": "Fertility score", "setting": "[1]; 30 DPP + 10 D, 85 days post planting", "value": 1.25},
      {"measurement": "Fertility score", "setting": "[1]; 30 DPP + 10 D, 90 days post planting", "value": 1.25},
      {"measurement": "Fertility score", "setting": "[1]; 30 DPP + 10 D, 104 days post planting", "value": 1.25},
      {"measurement": "Fertility score", "setting": "[1]; 30 DPP + 20 D (sprays from 30 DPP every 20 days), 2% Roundup about 64 oz/acre, 58 days post planting", "value": 1.00},
      {"measurement": "Fertility score", "setting": "[1]; 30 DPP + 20 D, 62 days post planting", "value": 1.75},
      {"measurement": "Fertility score", "setting": "[1]; 30 DPP + 20 D, 66 days post planting", "value": 2.5},
      {"measurement": "Fertility score", "setting": "[1]; 30 DPP + 20 D, 70 days post planting", "value": 2.75},
      {"measurement": "Fertility score", "setting": "[1]; 30 DPP + 20 D, 75 days post planting", "value": 2.5},
      {"measurement": "Fertility score", "setting": "[1]; 30 DPP + 20 D, 80 days post planting", "value": 1.75},
      {"measurement": "Fertility score", "setting": "[1]; 30 DPP + 20 D, 85 days post planting", "value": 1.75},
      {"measurement": "Fertility score", "setting": "[1]; 30 DPP + 20 D, 90 days post planting", "value": 1.50},
      {"measurement": "Fertility score", "setting": "[1]; 30 DPP + 20 D, 104 days post planting", "value": 1.50},
      {"measurement": "Fertility score", "setting": "[1]; 30 DPP single spray, 62 days post planting", "value": 3.00},
      {"measurement": "Fertility score", "setting": "[1]; 30 DPP single spray, 66 days post planting", "value": 3.75},
      {"measurement": "Fertility score", "setting": "[1]; 30 DPP single spray, 70 days post planting", "value": 4.00},
      {"measurement": "Fertility score", "setting": "[1]; 30 DPP single spray, 75 days post planting", "value": 4.25},
      {"measurement": "Fertility score", "setting": "[1]; 30 DPP single spray, 80 days post planting", "value": 4.50},
      {"measurement": "Fertility score", "setting": "[1]; 30 DPP single spray, 85 days post planting", "value": 5.00},
      {"measurement": "Fertility score", "setting": "[1]; 30 DPP single spray, 90 days post planting", "value": 5.00},
      {"measurement": "Fertility score", "setting": "[1]; 30 DPP single spray, 104 days post planting", "value": 5.00},
      {"measurement": "Adverse effects of the multiple sprays (other than male sterility)", "setting": "[1]; throughout the season, about 64 oz/acre", "value": "No adverse effects"},
      {"measurement": "Induction of male sterility", "setting": "[1]; treatment 2 (30 DPP+10 D), about 64 oz/acre", "value": "adequate to induce sterility"},
      {"measurement": "Induction of male sterility", "setting": "[1]; treatment 3 (30 DPP+20 D), about 64 oz/acre", "value": "adequate to induce sterility"},
      {"measurement": "Boll set of hand pollinated flowers (female sterility)", "setting": "Paymaster 145 RR", "value": "practically all hand pollinated flowers had not set viable bolls"},
      {"measurement": "Female sterility", "setting": "[2]; 24 oz/acre rate at roughly 10 day intervals (best effect)", "value": "minimal or no female sterility"},
      {"measurement": "Male sterility", "setting": "[2]; all rates used: 16, 24 and 32 ounces/acre, 14 day intervals from 31 days post planting", "value": "produced male sterility"},
      {"measurement": "Boll and hybrid seed set after hand pollination", "setting": "[2]; all the spray rates tested (16, 24, 32 oz/acre)", "value": "Full, mature bolls bearing hybrid seed were produced"},
      {"measurement": "Level of male sterility induced", "setting": "[2]; both varieties PM 2200 RR and PM 2326 RR, small varietal difference", "value": "adequate for hybrid production"},
      {"measurement": "Male sterility (assessed from yield)", "setting": "DP 5414 RR; 13.5 to 52 oz/acre", "value": "complete male-sterility was not achieved"},
      {"measurement": "Average Difference from Control", "setting": "DP 5414 RR; application rate 13.5 oz./acre", "value": 2.05, "unit": "oz./acre"},
      {"measurement": "Yield", "setting": "DP 5414 RR; application rate 13.5 oz./acre", "value": 32.53, "unit": "bu/acre"},
      {"measurement": "Average Difference from Control", "setting": "DP 5414 RR; application rate 26 oz./acre", "value": 8.30, "unit": "oz./acre"},
      {"measurement": "Yield", "setting": "DP 5414 RR; application rate 26 oz./acre", "value": 26.28, "unit": "bu/acre"},
      {"measurement": "Average Difference from Control", "setting": "DP 5414 RR; application rate 52 oz./acre", "value": 8.65, "unit": "oz./acre"},
      {"measurement": "Yield", "setting": "DP 5414 RR; application rate 52 oz./acre", "value": 25.93, "unit": "bu/acre"},
      {"measurement": "Male sterility (assessed from yield)", "setting": "DP 7220 RR; 13.5 to 52 oz/acre", "value": "complete male-sterility was not achieved"},
      {"measurement": "Average Difference from Control", "setting": "DP 7220 RR; application rate 13.5 oz./acre", "value": 4.05, "unit": "oz./acre"},
      {"measurement": "Yield", "setting": "DP 7220 RR; application rate 13.5 oz./acre", "value": 35.95, "unit": "bu/acre"},
      {"measurement": "Average Difference from Control", "setting": "DP 7220 RR; application rate 26 oz./acre", "value": 8.27, "unit": "oz./acre"},
      {"measurement": "Yield", "setting": "DP 7220 RR; application rate 26 oz./acre", "value": 31.73, "unit": "bu/acre"},
      {"measurement": "Average Difference from Control", "setting": "DP 7220 RR; application rate 52 oz./acre", "value": 11.55, "unit": "oz./acre"},
      {"measurement": "Yield", "setting": "DP 7220 RR; application rate 52 oz./acre", "value": 28.45, "unit": "bu/acre"},
      {"measurement": "Male sterility (assessed from yield)", "setting": "DP 6299 RR; 13.5 to 52 oz/acre", "value": "complete male-sterility was not achieved"},
      {"measurement": "Average Difference from Control", "setting": "DP 6299 RR; application rate 13.5 oz./acre", "value": 1.23, "unit": "oz./acre"},
      {"measurement": "Yield", "setting": "DP 6299 RR; application rate 13.5 oz./acre", "value": 36.45, "unit": "bu/acre"},
      {"measurement": "Average Difference from Control", "setting": "DP 6299 RR; application rate 26 oz./acre", "value": 9.65, "unit": "oz./acre"},
      {"measurement": "Yield", "setting": "DP 6299 RR; application rate 26 oz./acre", "value": 28.03, "unit": "bu/acre"},
      {"measurement": "Average Difference from Control", "setting": "DP 6299 RR; application rate 52 oz./acre", "value": 10.18, "unit": "oz./acre"},
      {"measurement": "Yield", "setting": "DP 6299 RR; application rate 52 oz./acre", "value": 27.50, "unit": "bu/acre"}
    ]}
  ]
}
